Measured values reported in the CheMixHub viscosity set.

Assay: xn = mol fraction of the nth substance listed

O=S(=O)([O-])[O-].O=S(=O)([O-])[O-].O=S(=O)([O-])[O-].[Al+3].[Al+3] + O
viscosity [mPa·s], 101 kPa
Details	298.15 K	323.15 K
x1 = 0.0016	1.12	0.597
x1 = 0.00272	–	0.734
x1 = 0.00291	–	0.743
x1 = 0.0032	1.36	0.695
x1 = 0.00384	–	0.839
x1 = 0.00482	–	0.96
x1 = 0.0053	1.93	0.925
x1 = 0.005932	–	1.074
x1 = 0.0071	2.44	1.15
x1 = 0.007109	–	1.242
x1 = 0.008241	–	1.431
x1 = 0.0087	3.17	1.44
x1 = 0.009379	–	1.686
x1 = 0.0105	4.21	1.82
x1 = 0.0106	–	1.989
x1 = 0.01197	–	2.398
x1 = 0.0123	5.95	2.41
x1 = 0.01327	–	2.919
x1 = 0.0145	8.96	3.43
x1 = 0.0147	–	3.571
x1 = 0.0154	10.5	3.96
x1 = 0.01608	–	4.31
x1 = 0.0161	11.8	4.33
x1 = 0.017	14.4	5.17
x1 = 0.01732	–	4.975
x1 = 0.0184	18	6.12
x1 = 0.01889	–	6.121

CCOC(=O)C(Cl)(Cl)Cl + O=C(O)C(Cl)(Cl)Cl
323.15 K, 101 kPa
Details	viscosity [mPa·s]
x1 = 0.2358	3.172
x1 = 0.4086	2.346
x1 = 0.5988	1.742
x1 = 0.7928	1.334

CCCC[N+](CCCC)(CCCC)CCCC.[Br-] + OCC(O)CO
viscosity [mPa·s], x1 = 0.2
Details	296.97 K	298 K	302.02 K	307.2 K	312.13 K	317.31 K	322.23 K
101 kPa	892.4	–	671.4	484.4	331.4	238	195.5
101.33 kPa	–	333.9	–	–	–	–	–

CCCC[N+](CCCC)(CCCC)CCCC.[Br-] + OCCO
Details	viscosity [mPa·s]
293.15 K, 101 kPa, x1 = 0.333	187.3
298 K, 100 kPa, x2 = 0.75	98
298 K, 101.33 kPa, x1 = 0.2	41.51
298.15 K, 100 kPa, x1 = 0.333	188
298.15 K, 101 kPa, x1 = 0.2	69
303.15 K, 100 kPa, x1 = 0.2	161.7
303.15 K, 101 kPa, x1 = 0.2	53.8
303.15 K, 101 kPa, x1 = 0.333	124
308 K, 100 kPa, x2 = 0.75	57
308.15 K, 101 kPa, x1 = 0.2	42.6
313.15 K, 100 kPa, x1 = 0.2	102.1
313.15 K, 101 kPa, x1 = 0.2	31.2
313.15 K, 101 kPa, x1 = 0.333	84.3
318 K, 100 kPa, x2 = 0.75	35
318.15 K, 101 kPa, x1 = 0.2	27.8
323.15 K, 100 kPa, x1 = 0.2	61.85
323.15 K, 101 kPa, x1 = 0.2	21.7
323.15 K, 101 kPa, x1 = 0.333	58.7

CCCC[N+](CCCC)(CCCC)CCCC.[Br-] + OCCOCCO
viscosity [mPa·s]
Details	293.15 K	303.15 K	313.15 K	323.15 K
100 kPa, x1 = 0.2	–	265.6	165.5	92.86
101 kPa, x2 = 0.667	203.9	150.6	87.28	57.39

CCCC[N+](CCCC)(CCCC)CCCC.[Br-] + OCCOCCOCCO
100 kPa, x1 = 0.2
Details	viscosity [mPa·s]
303.15 K	279.6
313.15 K	176.9
323.15 K	101.6

C1CCC(C2CCCCC2)CC1 + c1ccc2c(c1)CCCC2
viscosity [mPa·s], 102 kPa
Details	x2 = 0.1226	x2 = 0.2394	x2 = 0.3504	x2 = 0.4561	x2 = 0.5573	x2 = 0.6537	x2 = 0.747	x2 = 0.8343	x2 = 0.9189
293.15 K	3.67	3.35	3.08	2.87	2.7	2.55	2.44	2.34	2.28
303.15 K	2.91	2.67	2.48	2.33	2.2	2.09	2	1.93	1.88
313.15 K	2.36	2.19	2.04	1.93	1.83	1.75	1.68	1.62	1.58
323.15 K	1.95	1.82	1.71	1.62	1.54	1.48	1.43	1.38	1.35

C=C1CCC2CC1C2(C)C (configuration not stated) + c1ccccc1
viscosity [mPa·s], 101 kPa
Details	x2 = 0.3052	x2 = 0.4296	x2 = 0.5395	x2 = 0.6373	x2 = 0.7249	x2 = 0.8039	x2 = 0.8754	x2 = 0.9405
303.15 K	1.187	0.998	0.867	0.759	0.691	0.646	0.614	0.593
308.15 K	1.106	0.936	0.807	0.71	0.655	0.619	0.587	0.566
313.15 K	1.022	0.866	0.749	0.658	0.614	0.583	0.556	0.537

CCCCC(=O)O + c1ccccc1
298.15 K, 101 kPa
Details	viscosity [mPa·s]
x1 = 0.04	0.62
x1 = 0.078	0.639
x1 = 0.12	0.662
x1 = 0.16	0.687
x1 = 0.34	0.825
x1 = 0.43	0.92
x1 = 0.53	1.062
x1 = 0.75	1.436

Cc1cccc(N)c1 + c1ccccc1
303.15 K, 101.33 kPa
Details	viscosity [mPa·s]
x1 = 0.196	0.695
x1 = 0.405	0.87
x1 = 0.598	1.15
x1 = 0.795	1.54

NC(N)=S + c1ccncc1
298.15 K, 101 kPa
Details	viscosity [mPa·s]
x1 = 0.0572	1.251
x1 = 0.13	2.019
